Key:
[1] = biological target: Glutamate receptor ionotropic, kainate 2 (Homo sapiens, UniProt Q13002); assay: Displacement of [3H]-kainate from human recombinant GluK2 receptor expressed in HEK293 cell membranes after 60 mins
[2] = biological target: T1, Glutamate receptor ionotropic, kainate 5 (Homo sapiens, UniProt Q16478); assay: Displacement of [3H]-kainate from human recombinant GluK5 receptor expressed in HEK293 cell membranes after 60 mins
T1 sequence (Q16478 whole entry): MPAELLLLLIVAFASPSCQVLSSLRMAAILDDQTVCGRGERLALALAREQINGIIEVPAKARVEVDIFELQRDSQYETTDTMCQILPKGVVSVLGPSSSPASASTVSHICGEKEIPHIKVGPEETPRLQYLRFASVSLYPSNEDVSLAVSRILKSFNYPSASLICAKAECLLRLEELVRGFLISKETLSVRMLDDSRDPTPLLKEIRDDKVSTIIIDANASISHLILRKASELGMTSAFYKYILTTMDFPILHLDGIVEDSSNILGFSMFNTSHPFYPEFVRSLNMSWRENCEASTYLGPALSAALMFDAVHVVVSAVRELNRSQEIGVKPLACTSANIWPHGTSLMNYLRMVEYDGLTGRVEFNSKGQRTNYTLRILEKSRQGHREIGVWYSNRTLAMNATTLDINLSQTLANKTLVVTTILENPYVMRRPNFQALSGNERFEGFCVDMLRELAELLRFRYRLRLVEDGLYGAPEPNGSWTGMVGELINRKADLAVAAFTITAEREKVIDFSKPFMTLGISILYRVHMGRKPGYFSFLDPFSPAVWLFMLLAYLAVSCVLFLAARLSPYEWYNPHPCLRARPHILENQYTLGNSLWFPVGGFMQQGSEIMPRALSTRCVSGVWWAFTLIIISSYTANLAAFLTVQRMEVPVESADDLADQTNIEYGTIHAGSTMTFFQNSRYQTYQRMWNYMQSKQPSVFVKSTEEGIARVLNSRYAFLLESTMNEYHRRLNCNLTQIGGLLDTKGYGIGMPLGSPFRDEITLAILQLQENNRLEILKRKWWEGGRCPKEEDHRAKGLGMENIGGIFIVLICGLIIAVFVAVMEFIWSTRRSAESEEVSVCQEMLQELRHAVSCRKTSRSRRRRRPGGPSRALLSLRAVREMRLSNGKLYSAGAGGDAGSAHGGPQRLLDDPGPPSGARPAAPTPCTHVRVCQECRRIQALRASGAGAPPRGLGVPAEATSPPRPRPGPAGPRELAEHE

[3] = biological target: Glutamate receptor ionotropic, kainate 3 (Rattus norvegicus, UniProt P42264); assay: Displacement of [3H]-kainate from rat recombinant GluK3 receptor expressed in baculovirus infected insect Sf9 cell membranes after 60 mins
[4] = Displacement of [3H]-AMPA from AMPA receptor in rat brain membranes after 1 hr by liquid scintillation counting method; type: cell membranes, Membrane
[5] = Displacement of [3H]-kainate from kainate receptor in rat brain membranes after 1 hr by liquid scintillation counting method; type: cell membranes, Membrane
[6] = Displacement of [3H]-AMPA from AMPA receptor in rat brain membranes after 30 mins; type: cell membranes, Membrane
[7] = Displacement of [3H]-kainate from kainate receptor in rat brain membranes after 60 mins; type: cell membranes, Membrane
[8] = biological target: Glutamate receptor ionotropic, kainate 1 (Rattus norvegicus, UniProt P22756); assay: Displacement of [3H]-NF608 from rat recombinant GluK1 receptor expressed in baculovirus infected insect Sf9 cell membranes after 60 mins
[9] = organism: Rattus norvegicus; assay: Selectivity ratio of Ki for rat recombinant GluK3 receptor to Ki for rat recombinant GluK1 receptor

Chain of Glutamate receptor ionotropic, kainate 1 (P22756 whole entry): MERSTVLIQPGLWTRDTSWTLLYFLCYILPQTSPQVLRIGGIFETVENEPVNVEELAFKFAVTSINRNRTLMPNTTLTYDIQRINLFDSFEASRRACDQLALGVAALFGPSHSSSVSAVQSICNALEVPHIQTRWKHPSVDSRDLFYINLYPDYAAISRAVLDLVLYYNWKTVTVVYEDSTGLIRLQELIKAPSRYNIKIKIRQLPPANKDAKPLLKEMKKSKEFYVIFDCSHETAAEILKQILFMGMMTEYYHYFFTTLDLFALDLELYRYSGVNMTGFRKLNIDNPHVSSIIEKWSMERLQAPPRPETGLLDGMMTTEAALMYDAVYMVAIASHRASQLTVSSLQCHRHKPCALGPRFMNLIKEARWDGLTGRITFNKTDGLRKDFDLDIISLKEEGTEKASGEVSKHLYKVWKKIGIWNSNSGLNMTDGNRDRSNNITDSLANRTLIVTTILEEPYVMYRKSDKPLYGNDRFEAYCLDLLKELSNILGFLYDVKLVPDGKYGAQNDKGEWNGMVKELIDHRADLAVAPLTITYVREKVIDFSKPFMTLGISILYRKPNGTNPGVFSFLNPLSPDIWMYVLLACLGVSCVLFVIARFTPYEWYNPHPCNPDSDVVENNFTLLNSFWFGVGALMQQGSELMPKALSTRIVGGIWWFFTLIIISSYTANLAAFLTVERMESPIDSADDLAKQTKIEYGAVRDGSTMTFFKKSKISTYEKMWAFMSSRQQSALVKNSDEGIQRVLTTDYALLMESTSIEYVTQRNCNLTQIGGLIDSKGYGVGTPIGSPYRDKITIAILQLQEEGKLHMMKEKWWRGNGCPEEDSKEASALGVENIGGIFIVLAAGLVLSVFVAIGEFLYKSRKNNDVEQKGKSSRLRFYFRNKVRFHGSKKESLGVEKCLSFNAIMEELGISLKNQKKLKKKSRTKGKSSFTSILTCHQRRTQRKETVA
Chain of Glutamate receptor ionotropic, kainate 3 (P42264 whole entry): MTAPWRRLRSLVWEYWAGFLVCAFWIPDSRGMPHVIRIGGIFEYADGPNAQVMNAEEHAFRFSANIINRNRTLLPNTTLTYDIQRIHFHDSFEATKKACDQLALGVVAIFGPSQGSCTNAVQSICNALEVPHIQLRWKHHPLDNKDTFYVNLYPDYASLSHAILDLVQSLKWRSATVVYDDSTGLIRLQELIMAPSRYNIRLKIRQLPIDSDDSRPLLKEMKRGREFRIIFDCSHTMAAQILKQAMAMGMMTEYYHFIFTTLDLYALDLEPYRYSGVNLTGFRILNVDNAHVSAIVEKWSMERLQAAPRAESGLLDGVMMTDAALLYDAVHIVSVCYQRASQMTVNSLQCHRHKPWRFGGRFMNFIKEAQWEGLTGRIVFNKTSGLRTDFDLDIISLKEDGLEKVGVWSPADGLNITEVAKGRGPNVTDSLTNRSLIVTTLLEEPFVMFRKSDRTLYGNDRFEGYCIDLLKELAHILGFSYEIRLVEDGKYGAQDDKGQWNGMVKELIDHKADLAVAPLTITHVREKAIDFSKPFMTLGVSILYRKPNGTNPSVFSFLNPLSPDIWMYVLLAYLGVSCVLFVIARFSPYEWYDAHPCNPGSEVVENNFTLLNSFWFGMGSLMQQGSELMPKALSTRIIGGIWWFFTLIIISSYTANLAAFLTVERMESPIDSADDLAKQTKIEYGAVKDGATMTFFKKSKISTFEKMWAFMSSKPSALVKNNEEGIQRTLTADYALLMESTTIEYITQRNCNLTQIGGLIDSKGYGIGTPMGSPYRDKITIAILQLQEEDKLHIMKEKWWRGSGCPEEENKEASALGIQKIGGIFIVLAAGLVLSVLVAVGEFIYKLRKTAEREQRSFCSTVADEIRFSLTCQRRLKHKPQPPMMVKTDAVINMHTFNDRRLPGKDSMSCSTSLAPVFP
Chain of Glutamate receptor ionotropic, kainate 2 (Q13002 whole entry): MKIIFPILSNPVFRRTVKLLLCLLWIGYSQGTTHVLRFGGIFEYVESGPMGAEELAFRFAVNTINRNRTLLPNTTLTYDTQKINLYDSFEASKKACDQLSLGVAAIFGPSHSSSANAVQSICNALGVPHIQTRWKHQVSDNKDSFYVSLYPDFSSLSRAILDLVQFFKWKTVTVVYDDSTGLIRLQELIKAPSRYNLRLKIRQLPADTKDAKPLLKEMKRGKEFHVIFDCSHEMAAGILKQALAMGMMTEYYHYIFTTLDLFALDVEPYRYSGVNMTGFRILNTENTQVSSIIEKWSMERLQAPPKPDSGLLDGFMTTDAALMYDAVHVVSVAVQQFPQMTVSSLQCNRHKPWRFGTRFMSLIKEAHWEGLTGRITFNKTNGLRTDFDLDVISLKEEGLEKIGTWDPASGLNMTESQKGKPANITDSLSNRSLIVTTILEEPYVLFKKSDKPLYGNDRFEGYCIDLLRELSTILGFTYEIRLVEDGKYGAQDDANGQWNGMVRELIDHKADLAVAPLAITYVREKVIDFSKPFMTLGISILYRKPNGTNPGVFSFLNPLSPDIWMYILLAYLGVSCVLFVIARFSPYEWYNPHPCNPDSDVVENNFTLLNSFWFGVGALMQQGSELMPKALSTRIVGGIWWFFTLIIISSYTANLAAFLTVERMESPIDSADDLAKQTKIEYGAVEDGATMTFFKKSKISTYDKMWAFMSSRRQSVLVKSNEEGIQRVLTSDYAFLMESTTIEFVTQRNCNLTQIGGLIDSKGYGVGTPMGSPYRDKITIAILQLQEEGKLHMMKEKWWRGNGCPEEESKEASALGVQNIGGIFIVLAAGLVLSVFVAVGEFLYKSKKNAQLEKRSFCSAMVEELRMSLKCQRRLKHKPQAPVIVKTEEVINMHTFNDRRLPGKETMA

| Ki [3] | Ki [6] | pKi [6] | Ki [7] | Ki ([8]; read-out: Ki) | Ki ([8]; read-out: pKi (converted)) | SMILES | other results |
| --- | --- | --- | --- | --- | --- | --- | --- |
|  |  |  |  |  |  | O=C(O)[C@@H]1C[C@H]2C[C@@H](CN3CC(F)(F)C[C@H]3C(=O)O)CC[C@H]2CN1 | Ki [1]: 50 nM; Ki [2]: 8.9 µM |
| > 1000 µM |  |  |  |  |  | CC(C)(C)c1onc(OCP(=O)(O)O)c1C[C@H](N)C(=O)O | IC50 [4]: 16 µM; IC50 [5]: > 100 µM |
| > 100 µM |  |  |  |  |  | NC(Cc1cc(Cl)c(Cl)c(-c2cccc(C(=O)O)c2)c1)C(=O)O (centres undefined) |  |
| > 100 µM |  |  |  |  |  | NC(Cc1cccc(-c2cccc(C(=O)O)c2)c1)C(=O)O (centres undefined) |  |
| 25 µM | 51 µM | 4.31 | > 100 µM | 5.7 µM | 5.5 µM | NC(Cc1cc(Cl)cc(-c2cccc(C(=O)O)c2)c1)C(=O)O (racemic) |  |
| > 100 µM | > 100 µM |  | > 100 µM | 26 µM |  | Nc1ccc(CC(N)C(=O)O)cc1-c1cccc(C(=O)O)c1 (racemic) |  |
| > 100 µM | > 100 µM |  | > 100 µM | 35 µM |  | NC(Cc1ccc(Cl)c(-c2cccc(C(=O)O)c2)c1)C(=O)O (racemic) |  |
| > 100 µM | 100 µM |  | > 100 µM | 4.9 µM | 4.68 µM | Nc1c(Cl)cc(CC(N)C(=O)O)cc1-c1cccc(C(=O)O)c1 (racemic) | Ratio Ki [9]: 20 |
| > 100 µM | 38 µM | 4.43 | > 100 µM | 32 µM |  | NC(Cc1cc(-c2cccc(C(=O)O)c2)cc([N+](=O)[O-])c1)C(=O)O (racemic) |  |
| > 100 µM | 62 µM | 4.21 | 32 µM | 6.1 µM | 5.89 µM | NC(Cc1cc(-c2cccc(C(=O)O)c2)c(Cl)c([N+](=O)[O-])c1)C(=O)O (racemic) | pKi [7]: 4.5 |
| 23 µM | 65 µM | 4.19 | > 100 µM | 7.2 µM |  | NC(Cc1ccc([N+](=O)[O-])c(-c2cccc(C(=O)O)c2)c1)C(=O)O (racemic) |  |
| > 100 µM | > 100 µM |  | > 100 µM | 7.5 µM | 7.08 µM | Nc1c(-c2cccc(C(=O)O)c2)cc(CC(N)C(=O)O)cc1[N+](=O)[O-] (racemic) |  |
| 11 µM | > 100 µM |  | > 100 µM | 5.5 µM |  | NC(Cc1cc(Cl)c(O)c(-c2cccc(C(=O)O)c2)c1)C(=O)O (racemic) | Ratio Ki [9]: 2 |
